The results in this text go back to paper PMC8869358, “High-Throughput Chemical Screening and Structure-Based Models to Predict hERG Inhibition” (Biology, 2022).

The structures appear in SMILES notation. Structures can show the parent of a compound that is named as a salt.

hERG, sequence (Q12809 whole entry): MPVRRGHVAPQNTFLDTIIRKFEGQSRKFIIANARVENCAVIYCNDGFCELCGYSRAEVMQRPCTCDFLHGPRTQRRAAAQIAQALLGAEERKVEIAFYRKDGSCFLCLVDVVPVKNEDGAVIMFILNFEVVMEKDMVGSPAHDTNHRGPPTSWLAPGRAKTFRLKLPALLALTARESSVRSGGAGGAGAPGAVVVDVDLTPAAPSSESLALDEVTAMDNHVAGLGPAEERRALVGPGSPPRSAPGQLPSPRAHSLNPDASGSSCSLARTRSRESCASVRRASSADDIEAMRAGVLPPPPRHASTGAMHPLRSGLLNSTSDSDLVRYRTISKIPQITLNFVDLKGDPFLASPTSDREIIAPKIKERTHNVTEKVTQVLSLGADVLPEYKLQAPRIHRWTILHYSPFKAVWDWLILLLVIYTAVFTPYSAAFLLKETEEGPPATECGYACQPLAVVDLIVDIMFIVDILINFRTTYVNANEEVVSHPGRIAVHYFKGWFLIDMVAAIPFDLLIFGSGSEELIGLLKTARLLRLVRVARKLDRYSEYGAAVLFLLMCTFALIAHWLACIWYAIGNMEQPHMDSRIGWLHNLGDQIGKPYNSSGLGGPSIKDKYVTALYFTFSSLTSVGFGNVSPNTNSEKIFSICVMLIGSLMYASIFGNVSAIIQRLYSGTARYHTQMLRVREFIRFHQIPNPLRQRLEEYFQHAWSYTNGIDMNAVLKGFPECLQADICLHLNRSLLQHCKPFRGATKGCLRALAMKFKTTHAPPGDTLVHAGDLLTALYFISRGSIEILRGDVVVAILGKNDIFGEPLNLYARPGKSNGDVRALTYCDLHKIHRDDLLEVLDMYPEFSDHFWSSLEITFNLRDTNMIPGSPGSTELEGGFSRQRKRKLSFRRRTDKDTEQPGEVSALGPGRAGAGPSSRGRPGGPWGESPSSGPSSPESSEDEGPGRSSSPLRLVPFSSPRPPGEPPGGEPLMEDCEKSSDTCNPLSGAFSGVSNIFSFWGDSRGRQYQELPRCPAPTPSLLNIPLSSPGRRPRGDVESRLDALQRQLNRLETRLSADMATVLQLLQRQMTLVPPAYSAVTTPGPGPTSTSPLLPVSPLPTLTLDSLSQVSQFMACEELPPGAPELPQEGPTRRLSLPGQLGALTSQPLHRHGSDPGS

The first assay concerns the target hERG (Homo sapiens, UniProt Q12809). In words: cell-based.
Conditions: not given
`O[C@@H](COc1cccc2ncccc12)CN1CCN([C@@H]2c3ccccc3[C@@H]3[C@H](c4ccccc42)C3(F)F)CC1` [LY335979 trihydrochloride] had an IC50 of 12 µM.

Staying with this assay, now noted: (-LOG10(IC50), µM).
Take `Cc1c(OCC(F)(F)F)ccnc1C[S+]([O-])c1nc2ccccc2[nH]1` (stereo not drawn) [Lansoprazole]: the IC50 stood at 43.6 µM. On to `CCCCCCCCCCCCN(CCO)CCO` [Lauryldiethanolamine], for which 11.8 µM corresponded to half-maximal inhibition (IC50). `COC(=O)C1=C(C)NC(COC(N)=O)=C(C(=O)OC(C)C)C1c1cccc(Cl)c1Cl` (stereo not drawn) [Lemildipine] showed a half-inhibitory concentration (IC50) of 23.9 µM.

`COC(=O)C1=C(C)NC(C)=C(C(=O)OC(C)(C)CN(C)CCC(c2ccccc2)c2ccccc2)C1c1cccc([N+](=O)[O-])c1` (stereo not drawn) [Lercanidipine hydrochloride] had an IC50 of 3.25 µM.

In turn, `CC(C)=CCC[C@](C)(O)[C@@H]1CC=C(C)CC1` [Levomenol] had an IC50 of 38.9 µM. In the case of `C[C@@H]1CC(=O)NN=C1c1ccc(NN=C(C#N)C#N)cc1` [Levosimendan], the IC50 was 5.67 µM. On the same count and under the same terms, to `C=CC(C)(CCC=C(C)C)OC(=O)c1ccccc1` (stereo not drawn) [Linalyl benzoate] belongs 20.3 µM; to `COc1ccc(CN2CCN(C(c3ccc(F)cc3)c3ccc(F)cc3)CC2)c(OC)c1OC` [Lomerizine dihydrochloride], 0.849 µM; to `CCCCCN(CCCCC)C(=O)C(CCC(=O)O)NC(=O)c1ccc(Cl)c(Cl)c1` (stereo not drawn) [Lorglumide sodium], 9.52 µM. Still for that read-out and setting: to `CN1CCN(C2=Nc3ccccc3Oc3ccc(Cl)cc32)CC1` [Loxapine succinate] belongs 12 µM; to `N#C/C(=C1/SC[C@@H](c2ccc(Cl)cc2Cl)S1)n1ccnc1` [Luliconazole], 3.13 µM. On the same count and under the same terms, in the case of `CCCCN(CCCC)CC(O)c1cc(Cl)cc2c1-c1ccc(Cl)cc1/C2=C/c1ccc(Cl)cc1` (stereo not drawn) [Lumefantrine] it was 3.65 µM; in that of `CCn1nc(Cc2ccccc2)cc1C1CCN(C[C@H]2C[C@H](N(C)[C@@H](C(=O)O)C(C)C)C[C@@H]2c2cccc(F)c2)CC1` [MK-578], 20.3 µM; in that of `CN(C)c1ccc(C(=C2C=CC(=[N+](C)C)C=C2)c2ccccc2)cc1` [Malachite green oxalate], 3.51 µM. On to `CN(C)c1ccc(C(=C2C=CC(=[N+](C)C)C=C2)c2ccccc2)cc1` [Malachite green], for which the midpoint of inhibition, the IC50, lay at 4.25 µM.

In turn, `COC(=O)C1=C(C)NC(C)=C(C(=O)OCCN2CCN(C(c3ccccc3)c3ccccc3)CC2)C1c1cccc([N+](=O)[O-])c1` (stereo not drawn) [Manidipine dihydrochloride] had an IC50 of 7 µM. Still for that read-out and setting: in the case of `CN1C2CCC(C)(C)C1CC(OC(=O)C(O)(c1cccs1)c1cccs1)C2` (stereo not drawn) [Mazaticol] it was 21.3 µM; in that of `CC(Cc1ccccc1)NCCCCl` (stereo not drawn) [Mefenorex], 16.3 µM. On the same count and under the same terms, to `CCOC(=O)C1=NN(c2ccc(Cl)cc2Cl)C(C)(C(=O)OCC)C1` (stereo not drawn) [Mefenpyr-diethyl] belongs 46.2 µM; to `COC(=O)[C@H]1[C@H]2C[C@@H]3c4[nH]c5cc(OC)ccc5c4CCN3C[C@H]2C[C@@H](OC(=O)COc2ccc(OC)cc2)[C@@H]1OC` [Mefeserpine], 0.786 µM. Still for that read-out and setting: to `CCCCC/C=C\C/C=C\CCCCCCCC(=O)NC(C)c1ccccc1` (stereo not drawn) [Melinamide] belongs 21.3 µM. For `Cc1cc(O)c2ccccc2c1O` [Menadiol], the concentration for half-maximal inhibition (IC50) was 2.68 µM. Take `CC1=CC(=O)c2ccccc2C1=O` [Menadione]: half-maximal inhibition (IC50) was put at 7.28 µM. Compound `CC1CCC(C(C)C)C(OC(=O)c2ccccc2N)C1` (stereo not drawn) [Menthyl anthranilate] had a half-maximal inhibitory concentration (IC50) of 30.5 µM.

Compound `N#Cc1ccc(CC(=NNC(=O)Nc2ccc(OC(F)(F)F)cc2)c2cccc(C(F)(F)F)c2)cc1` [Metaflumizone] had a half-maximal inhibitory concentration (IC50) of 13.3 µM. Turning to `CC1(C)CCC(Cc2ccc(Cl)cc2)C1(O)Cn1cncn1` (stereo not drawn) [Metconazole], the midpoint of inhibition, the IC50, lay at 50.9 µM. Still for that read-out and setting: to `COc1ccc(C(c2ccc(OC)cc2)C(Cl)(Cl)Cl)cc1` [Methoxychlor] belongs 20.5 µM. The same measure, in the same setting: in the case of `Cc1cc(C(C)(C)CC(C)(C)C)ccc1OCCOCC[N+](C)(C)Cc1ccccc1` [Methylbenzethonium chloride] it was 0.756 µM. On the same count and under the same terms, in the case of `N#CSCSC#N` [Methylene bis(thiocyanate)] it was 50.1 µM; in that of `CCCCCCCC[N+](C)(CCCCCCCC)CCCCCCCC` [Methyltrioctylammonium chloride], 0.616 µM. Consider `CSc1ccc2c(c1)C(N1CCN(C)CC1)Cc1ccccc1S2` (stereo not drawn) [Metitepine], for which the half-inhibitory concentration (IC50) is 1.15 µM. Regarding `CN1CCCC(CC2c3ccccc3Sc3ccccc32)C1` (stereo not drawn) [Metixene hydrochloride], inhibition was half-maximal at 4.77 µM (IC50). Still for that read-out and setting: to `COc1ccc(C(=O)c2ccc(C)cc2)c(O)c1` [Mexenone] belongs 45.9 µM; to `CCCCCCCCCCCCCCCCCCNC(=O)OC1CCN(C(=O)OC[C@H](COC(=O)N(Cc2cccc[n+]2CC)C(=O)c2ccccc2OC)OC)CC1` [Minopafant], 19 µM.

Regarding `CN(c1nccc(=O)[nH]1)C1CCN(c2nc3ccccc3n2Cc2ccc(F)cc2)CC1` [Mizolastine], the IC50 is 2.21 µM. Same read-out and setting: in the case of `O=C(CCCN1CCN(c2ccc(F)cc2)CC1)NC1c2ccccc2CSc2ccccc21` (stereo not drawn) [Monatepil] it was 2.01 µM.

`Cc1ccsc1/C=C/C1=NCCCN1C` [Morantel tartrate] gave an IC50 of 19.7 µM. On the same count and under the same terms, to `O=C(OCCN1CCOCC1)c1cccnc1Nc1cccc(C(F)(F)F)c1` [Morniflumate] belongs 10.3 µM. Still for that read-out and setting: in the case of `O=C1NC2CCCCN2C12CCN(CCCN1c3ccccc3CCc3ccc(Cl)cc31)CC2` (stereo not drawn) [Mosapramine] it was 0.882 µM. On the same count and under the same terms, in the case of `COc1c(C(C)(C)C)cc([N+](=O)[O-])c(C)c1[N+](=O)[O-]` [Musk ambrette] it was 20.5 µM; in that of `CCCCCCCCCCCCCCNCCO` [Myralact], 12.5 µM.

In turn, `CCCCCCCCCCCCCC[N+](C)(C)C` [Myristyltrimethylammonium chloride] gave a half-maximal inhibitory concentration (IC50) of 15 µM. Still for that read-out and setting: to `O=C1C=CC(=O)N1c1cccc(N2C(=O)C=CC2=O)c1` [N,N'-1,3-Phenylenedimaleimide] belongs 49 µM; to `CCC(C)Nc1ccc(NC(C)CC)cc1` (stereo not drawn) [N,N'-Bis(1-methylpropyl)-1,4-benzenediamine], 12.5 µM. `c1ccc(Nc2ccc(Nc3ccccc3)cc2)cc1` [N,N'-Diphenyl-p-phenylenediamine]: the concentration for half-maximal inhibition (IC50) is 41 µM. Still for that read-out and setting: in the case of `CCCCCCCCCCCCCCCCCC[N+](C)(C)C` [N,N,N-Trimethyloctadecan-1-aminium chloride] it was 17.4 µM; in that of `CCN(CC)c1ccc(N)cc1` [N,N-Diethyl-p-phenylenediamine], 35.6 µM. Regarding `CCCCCCCCCCCCCCCCCC[N+](C)(C)Cc1ccccc1` [N,N-Dimethyl-N-benzyl-N-octadecylammonium chloride], the half-maximal inhibitory concentration (IC50) is 4.41 µM. `CCCCCCC(C)Nc1ccc(Nc2ccccc2)cc1` (stereo not drawn) [N-(1-Methylheptyl)-N'-phenyl-1,4-benzenediamine]: half-maximal inhibition (IC50) required 34.7 µM. Still for that read-out and setting: in the case of `NCCNc1cccc2ccccc12` [N-(1-Naphthyl)ethylenediamine dihydrochloride] it was 40.2 µM; in that of `CC(C)CC(C)N(c1ccccc1)c1ccc(N)cc1` (stereo not drawn) [N-(4-Methylpentan-2-yl)-N-phenylbenzene-1,4-diamine], 27.5 µM; in that of `CCN(CCN)c1cccc(C)c1` [N-Ethyl-N-(3-methylphenyl)ethane-1,2-diamine], 49 µM. In the case of `CC(C)Nc1ccc(Nc2ccccc2)cc1` [N-Isopropyl-N'-phenyl-p-phenylenediamine], it took 28.5 µM to reach half-maximal inhibition (IC50). Still for that read-out and setting: in the case of `C#CCN(C)CCCOc1ccc(Cl)cc1Cl` [N-Methyl-N-propargyl-3-(2,4-dichlorophenoxy)propylamine hydrochloride] it was 8.82 µM; in that of `CCCCCCCCN(C)CCCCCCCC` [N-Methyldioctylamine], 3.25 µM; in that of `c1ccc(Nc2cccc3ccccc23)cc1` [N-Phenyl-1-naphthylamine], 33.4 µM. The same measure, in the same setting: in the case of `CCCCCCCCCCCC(=O)NCCCN(C)C` [N-[3-(Dimethylamino)propyl]dodecanamide] it was 14.3 µM; in that of `O=C(N[C@@H]1N=C(c2ccccc2F)c2cccc3c2N(CC3)C1=O)c1cc2ccccc2[nH]1` [N-[(3R)-1-(2-Fluorophenyl)-4-oxo-3,4,6,7-tetrahydro[1,4]diazepino[6,7,1-hi]indol-3-yl]-1H-indole-2-carboxamide], 8.82 µM; in that of `CCN(CC)CCOC(=O)C(Cc1cccc2ccccc12)CC1CCCO1` (stereo not drawn) [Nafronyl oxalate], 8.99 µM. On the same count and under the same terms, in the case of `COc1ccccc1N1CCN(CC(O)COc2cccc3ccccc23)CC1` (stereo not drawn) [Naftopidil] it was 1.69 µM; in that of `C[C@]12CC[C@H]3[C@@H](CCC4=CC(=O)CC[C@@H]43)[C@@H]1CC[C@@H]2OC(=O)CCC1CCCCC1` [Nandrolone cyclohexylpropionate], 15.1 µM; in that of `C[C@]12CC[C@H]3[C@@H](CCC4=CC(=O)CC[C@@H]43)[C@@H]1CC[C@@H]2OC(=O)CCc1ccco1` [Nandrolone furylpropionate], 12 µM. Consider `C[C@]12CC[C@H]3[C@@H](CCC4=CC(=O)CC[C@@H]43)[C@@H]1CC[C@@H]2OC(=O)CCc1ccccc1` [Nandrolone phenpropionate], for which half-maximal inhibition (IC50) was put at 12.5 µM. The same measure, in the same setting: in the case of `CCc1nn(CCCN2CCN(c3cccc(Cl)c3)CC2)c(=O)n1CCOc1ccccc1` [Nefazodone hydrochloride] it was 1.57 µM. The compound `COc1ccc(S(=O)(=O)N2C(=O)[C@@](c3ccccc3OC)(N3C[C@H](O)C[C@H]3C(=O)N(C)C)c3cc(Cl)ccc32)c(OC)c1` [Nelivaptan] had a concentration for half-maximal inhibition (IC50) of 54.9 µM. Still for that read-out and setting: to `CC(C)(COC(=O)c1ccccc1)COC(=O)c1ccccc1` [Neopentyl glycol dibenzoate] belongs 13.8 µM; to `C=CC(C)(O)CCC=C(C)CCC=C(C)C` (stereo not drawn) [Nerolidol], 47.1 µM. Still for that read-out and setting: in the case of `CCCCCOc1ccccc1/C(=C\SC)n1ccnc1` [Neticonazole] it was 20.5 µM.

Take `CO[C@]12C[C@@H](COC(=O)c3cncc(Br)c3)CN(C)[C@@H]1Cc1cn(C)c3cccc2c13` [Nicergoline]: half-maximal inhibition (IC50) required 1.45 µM. On the same count and under the same terms, in the case of `CNCCC(Oc1ccccc1OC)c1ccccc1` (stereo not drawn) [Nisoxetine] it was 9.52 µM; in that of `O=[N+]([O-])c1ccc(Oc2ccc(Cl)cc2Cl)cc1` [Nitrofen], 18.9 µM.
